Measurements: patent US12317914B2, “Compositions and methods using one or more autophagy-inducing amino acids to potentiate musculoskeletal effect of one or more anabolic amino acids” (SOCIETE DES PRODUITS NESTLE S.A., priority 2019, dated 2025)

System: LC3 protein fused to ZsGreen
Assay: zebrafish autophagy reporter (LC3-ZsGreen, skeletal muscle specific promoter), number of LC3 punctae
Type: in vivo
Conditions: zebrafish larvae treated at 48 h post-fertilization, 0.25 to 10 mM, 16 hours of treatment
Procedure: After 16 hours of treatment larvae were anesthetized with 0.016% tricaine and imaged with ImageXpress confocal system at 20× magnification (Molecular Devices). Z stack images were captured for each larva and maximal projection images were produced. Number of LC3 punctae have been calculated with MetaXpress software (Moleculare Devices) and normalized by fish area.

Row | Structure (SMILES) | effect on autophagy (number of LC3 punctae normalized by fish area)
1 | N=C(N)NCCC[C@H](N)C(=O)O [Arginine] | reduce basal autophagy
2 | N[C@@H](CS)C(=O)O [Cysteine] | strongly induce autophagy
3 | N[C@@H](CCC(=O)O)C(=O)O [Glutamate] | strongly induce autophagy
4 | NC(=O)CC[C@H](N)C(=O)O [Glutamine] | reduce basal autophagy
5 | NCC(=O)O [Glycine] | strongly induce autophagy
6 | CC[C@H](C)[C@H](N)C(=O)O [Isoleucine] | reduce basal autophagy
7 | CC(C)C[C@H](N)C(=O)O [Leucine] | reduce basal autophagy
8 | CSCC[C@H](N)C(=O)O [Methionine] | strongly induce autophagy
9 | CC(=O)N[C@@H](CS)C(=O)O [N-Acetyl Cysteine] | strongly induce autophagy
10 | O=C(O)[C@@H]1CCCN1 [Proline] | strongly induce autophagy
11 | N[C@@H](CO)C(=O)O [Serine] | strongly induce autophagy
12 | N[C@@H](Cc1ccc(O)cc1)C(=O)O [Tyrosine] | strongly induce autophagy
13 | CC(C)[C@H](N)C(=O)O [Valine] | strongly induce autophagy
